≈ marks a conversion by molar mass, not a printed value. Calls of active or inactive are those of the source. The rule behind the calls is not given here.
How the values were obtained:
[1] = system: Pseudomonas aeruginosa; assay: Antimicrobial activity against Pseudomonas aeruginosa at 25 ug/well after 24 hrs by agar well diffusion method; type: functional; settings: read-out: DIZ
[2] = system: Aspergillus niger; assay: Antimicrobial activity against Aspergillus niger at 100 ug/well after 48 hrs by agar well diffusion method; type: functional; settings: read-out: DIZ
[3] = system: Staphylococcus aureus; assay: Antimicrobial activity against Staphylococcus aureus at 100 ug/well after 24 hrs by agar well diffusion method; type: functional; settings: read-out: DIZ
[4] = system: Escherichia coli; assay: Antimicrobial activity against Escherichia coli at 100 ug/well after 24 hrs by agar well diffusion method; type: functional; settings: read-out: DIZ
[5] = system: Aspergillus niger; assay: Antimicrobial activity against Aspergillus niger at 50 ug/well after 48 hrs by agar well diffusion method; type: functional; settings: read-out: DIZ
[6] = system: Penicillium chrysogenum; assay: Antimicrobial activity against Penicillium chrysogenum at 100 ug/well after 48 hrs by agar well diffusion method; type: functional; settings: read-out: DIZ
[7] = system: Penicillium chrysogenum; assay: Antimicrobial activity against Penicillium chrysogenum at 25 ug/well after 48 hrs by agar well diffusion method; type: functional; settings: read-out: DIZ
[8] = system: Aspergillus niger; assay: Antimicrobial activity against Aspergillus niger at 25 ug/well after 48 hrs by agar well diffusion method; type: functional; settings: read-out: DIZ
[9] = system: Pseudomonas aeruginosa; assay: Antimicrobial activity against Pseudomonas aeruginosa at 100 ug/well after 24 hrs by agar well diffusion method; type: functional; settings: read-out: DIZ
[10] = system: Escherichia coli; assay: Antimicrobial activity against Escherichia coli at 50 ug/well after 24 hrs by agar well diffusion method; type: functional; settings: read-out: DIZ
[11] = system: Staphylococcus aureus; assay: Antimicrobial activity against Staphylococcus aureus at 50 ug/well after 24 hrs by agar well diffusion method; type: functional; settings: read-out: DIZ
[12] = system: A549; assay: Cytotoxicity against human A549 cells assessed as reduction in cell viability after 20 hrs by MTT assay; type: functional, cell-based; settings: for IC50: A549, 20 h
[13] = system: Escherichia coli; assay: Antimicrobial activity against Escherichia coli at 25 ug/well after 24 hrs by agar well diffusion method; type: functional; settings: read-out: DIZ
[14] = system: Staphylococcus aureus; assay: Antimicrobial activity against Staphylococcus aureus at 25 ug/well after 24 hrs by agar well diffusion method; type: functional; settings: read-out: DIZ
[15] = system: Penicillium chrysogenum; assay: Antimicrobial activity against Penicillium chrysogenum at 50 ug/well after 48 hrs by agar well diffusion method; type: functional; settings: read-out: DIZ
[16] = system: Pseudomonas aeruginosa; assay: Antimicrobial activity against Pseudomonas aeruginosa at 50 ug/well after 24 hrs by agar well diffusion method; type: functional; settings: read-out: DIZ
[17] = system: Staphylococcus aureus; assay: Antimicrobial activity against Staphylococcus aureus ATCC 25923 after 24 hrs; type: functional; settings: ATCC 25923, 24 h
[18] = system: Escherichia coli; assay: Ratio of MBC to MIC for Escherichia coli ATCC 25922; type: functional
[19] = system: Pseudomonas aeruginosa; assay: Antimicrobial activity against Pseudomonas aeruginosa ATCC 27853 after 24 hrs; type: functional; settings: ATCC 27853, 24 h
[20] = system: Pseudomonas aeruginosa; assay: Ratio of MBC to MIC for Pseudomonas aeruginosa ATCC 27853; type: functional
[21] = system: Staphylococcus aureus; assay: Antimicrobial activity against Staphylococcus aureus ATCC 25923 after 24 hrs by broth dilution method; type: functional
[22] = system: Escherichia coli; assay: Antimicrobial activity against Escherichia coli ATCC 25922 after 24 hrs; type: functional; settings: ATCC 25922, 24 h
[23] = system: Penicillium chrysogenum; assay: Ratio of MBC to MIC for Penicillium chrysogenum; type: functional
[24] = system: Aspergillus niger; assay: Antimicrobial activity against Aspergillus niger after 24 hrs; type: functional
[25] = system: A549; assay: Cytotoxicity against human A549 cells assessed as reduction in cell viability up to 200 uM after 20 hrs by MTT assay; type: functional, cell-based
[26] = system: Escherichia coli; assay: Antimicrobial activity against Escherichia coli ATCC 25922 after 24 hrs by broth dilution method; type: functional
[27] = system: Penicillium chrysogenum; assay: Antimicrobial activity against Penicillium chrysogenum after 24 hrs by broth dilution method; type: functional
[28] = system: Pseudomonas aeruginosa; assay: Antimicrobial activity against Pseudomonas aeruginosa ATCC 27853 after 24 hrs by broth dilution method; type: functional
[29] = system: Staphylococcus aureus; assay: Ratio of MBC to MIC for Staphylococcus aureus ATCC 25923; type: functional
[30] = system: Aspergillus niger; assay: Ratio of MBC to MIC for Aspergillus niger; type: functional
[31] = system: Aspergillus niger; assay: Antimicrobial activity against Aspergillus niger after 24 hrs by broth dilution method; type: functional
[32] = system: Penicillium chrysogenum; assay: Antimicrobial activity against Penicillium chrysogenum after 24 hrs; type: functional

Row | SMILES | zone of inhibition at 25 µg/disc [1] [mm] | zone of inhibition at 100 µg/disc [2] [mm] | zone of inhibition at 100 µg/disc [3] [mm] | zone of inhibition at 100 µg/disc [4] [mm] | zone of inhibition at 50 µg/disc [5] [mm] | zone of inhibition at 100 µg/disc [6] [mm] | zone of inhibition at 25 µg/disc [7] [mm] | zone of inhibition at 25 µg/disc [8] [mm] | zone of inhibition at 100 µg/disc [9] [mm] | zone of inhibition at 50 µg/disc [10] [mm] | zone of inhibition at 50 µg/disc [11] [mm] | zone of inhibition at 25 µg/disc [13] [mm] | zone of inhibition at 25 µg/disc [14] [mm] | zone of inhibition at 50 µg/disc [15] [mm] | zone of inhibition at 50 µg/disc [16] [mm] | MIC ([21]; ATCC 25923, 24 h) [µg/mL] | Activity [25] | MIC ([26]; ATCC 25922, 24 h) [µg/mL] | MIC [27] | MIC [31] | also measured
1 | Cc1cc(Sc2nc3ccccc3s2)nc(SCc2nc3ccccc3s2)n1 | 13 | 15 | 16 | 20 | 12 | 15 | 12 | 10 | 16 | 17 | 12 | 14 | 10 | 13 | 15 | – | – | – | – | – | inhibition [12]: Dose-dependent effect; IC50 [12]: 70 µM
2 | Cc1cc(SCc2nc3ccccc3o2)nc(SCc2nc3ccccc3o2)n1 | 17 | 24 | 23 | 29 | 22 | 33 | 28 | 20 | 22 | 24 | 22 | 21 | 20 | 30 | 20 | 50 (≈ 119 µM) | inactive | 100 (≈ 238 µM) | 100 µg/mL (≈ 238 µM) | 100 µg/mL (≈ 238 µM) | MBC [17]: > 200 µg/mL; Ratio [18]: >2; MBC [19]: > 200 µg/mL; Ratio [20]: >2; MBC [22]: > 200 µg/mL; Ratio [23]: >2; MFC [24]: > 200 µg/mL; MIC ([28]; ATCC 27853, 24 h): 100 µg/mL (≈ 238 µM); Ratio [29]: >2; Ratio [30]: >2; MFC [32]: > 200 µg/mL
3 | Cc1cc(Nc2nc3ccccc3s2)nc(SCc2nc3ccccc3s2)n1 | 14 | 21 | 18 | 23 | 19 | 32 | 27 | 17 | 18 | 20 | 16 | 15 | 13 | 29 | 17 | – | – | – | – | – | inhibition [12]: Dose-dependent effect; IC50 [12]: 10.5 µM
4 | CC(=O)N1CCN(c2ccc(OCC3COC(Cn4ccnc4)(c4ccc(Cl)cc4Cl)O3)cc2)CC1 (centres undefined) [KETOCONAZOLE] | – | 36 | – | – | 33 | 38 | 35 | 31 | – | – | – | – | – | 36 | – | – | – | – | 12.5 µg/mL (≈ 23.5 µM) | 6.25 µg/mL (≈ 11.8 µM) | MIC [21]: inactive; MIC [26]: inactive; MIC [28]: inactive
5 | Cc1cc(SCc2nc3ccccc3s2)nc(SCc2nc3ccccc3s2)n1 | 19 | 28 | 25 | 30 | 25 | 35 | 30 | 24 | 24 | 28 | 23 | 24 | 21 | 32 | 21 | 50 (≈ 110 µM) | inactive | 100 (≈ 221 µM) | 50 µg/mL (≈ 110 µM) | 50 µg/mL (≈ 110 µM) | MBC [17]: 200 µg/mL (≈ 442 µM); Ratio [18]: >2; MBC [19]: 200 µg/mL (≈ 442 µM); Ratio [20]: >2; MBC [22]: > 200 µg/mL; Ratio [23]: >2; MFC [24]: > 200 µg/mL; MIC ([28]; ATCC 27853, 24 h): 50 µg/mL (≈ 110 µM); Ratio [29]: >2; Ratio [30]: >2; MFC [32]: 200 µg/mL (≈ 442 µM)
6 | Cc1cc(SCc2nc3ccccc3[nH]2)nc(SCc2nc3ccccc3[nH]2)n1 | 22 | 32 | 29 | 35 | 30 | 38 | 33 | 27 | 27 | 32 | 26 | 28 | 23 | 35 | 25 | 12.5 (≈ 29.9 µM) | inactive | 50 (≈ 119 µM) | 12.5 µg/mL (≈ 29.9 µM) | 12.5 µg/mL (≈ 29.9 µM) | MBC [17]: 25 µg/mL (≈ 59.7 µM); MBC [19]: 100 µg/mL (≈ 239 µM); MBC [22]: 200 µg/mL (≈ 478 µM); Ratio [23]: 2; MFC [24]: 100 µg/mL (≈ 239 µM); MIC ([28]; ATCC 27853, 24 h): 12.5 µg/mL (≈ 29.9 µM); Ratio [29]: 2; MFC [32]: 25 µg/mL (≈ 59.7 µM)
7 | O=C(O)c1cn(C2CC2)c2cc(N3CCNCC3)c(F)cc2c1=O [CIPROFLOXACIN] | 25 | – | 27 | 38 | – | – | – | – | 30 | 35 | 24 | 30 | 22 | – | 28 | 12.5 (≈ 37.7 µM) | – | 12.5 (≈ 37.7 µM) | inactive | inactive | –
8 | Cc1cc(Nc2nc3ccccc3[nH]2)nc(SCc2nc3ccccc3[nH]2)n1 | 16 | 25 | 20 | 25 | 23 | 33 | 29 | 20 | 21 | 22 | 17 | 19 | 15 | 31 | 19 | – | inactive | – | – | – | –
